Values joined by “and” are separate entries in the source; they are usually repeats but may differ in a detail not shown here. Identical values can stand only once. Like-named read-outs stand apart in the source and are kept apart here.
Columns and labels:
CB2 receptor = molecular target: T1, CB2 receptor (Mus musculus, UniProt P47936); assay: CB2 receptor binding, mouse spleen membranes, same manner as the CB1 binding assay; details: for Ki: [3H] CP-55,940; for selectivity CB2: ratio of CB1 Ki to CB2 Ki
T1 construct: membranes were prepared from frozen mouse spleen; from tissue; host or cells: mouse spleen
Method: Some of the inventive analogs were tested for CB2 receptor binding affinity and for CB1 receptor affinity (to determine selectivity). […] The lower the Ki value the higher the binding affinity.
(§1) The treated membranes were subsequently used in the binding assay described below. Approximately 30 μg of membranes were incubated in silanized 96-well microtiter plate with TME containing 0.1% essentially fatty acid-free bovine serum albumin (BSA), 0.8 nM [^3H] […] Radioactivity was detected using MicroScint 20 scintillation cocktail added directly to the dried filterplates, and the filterplates were counted using a Packard Instruments Top-Count. […] Data collected from three independent experiments performed with duplicate determinations was normalized between 100% and 0% specific binding for [^3H] […] The normalized data was analyzed using a 4-parameter nonlinear logistic equation to yield IC50 values.
Silanized centrifuge tubes were used throughout to minimize receptor loss due to adsorption. The CB2 binding assay was conducted in the same manner as for the CB1 binding assay. The binding affinities (Ki) were also expressed in nanomoles (nM).

CB1 cannabinoid receptor = molecular target: T2, CB1 cannabinoid receptor (Rattus norvegicus, UniProt P20272); assay: CB1 receptor binding, rat forebrain membranes, [3H] CP-55,940 displacement; details: for Ki: 0.8 nM [3H] CP-55,940
T2 construct: membranes were prepared from rat forebrain membranes; from tissue; host or cells: rat forebrain
Method: Some of the inventive analogs were tested for CB2 receptor binding affinity and for CB1 receptor affinity (to determine selectivity). […] The lower the Ki value the higher the binding affinity. […]
Membranes, previously frozen at −80° C., were thawed on ice. To the stirred suspension was added three volumes of TME (25 mM Tris-HCl buffer, 5 mM MgCl2 and 1 mM EDTA) at a pH 7.4. The suspension was incubated at 4° C. for 30 min. At the end of the incubation, the membranes were pelleted and washed three times with TME.
as §1

rats = assay: Food-reinforced lever pressing in trained rats; type: in vivo, rat; details: IP, various dosages, tested ten minutes after injection, FIG. 1, p<0.05
Method: 11 rats were trained to press a lever five times to receive a 45 mg food pellet. The training continued over a time period of several weeks. After the training period all rats received drug treatments once per week. The specific rat receiving a drug treatment and the dosage given were each randomly varied. The treatments comprised administration of a vehicle control solution or various dosages of inventive compound 1-5 in combination with the vehicle control solution. All injections were given IP. Ten minutes after injection the rat was placed in proximity to the lever.
FIG. 1 illustrates a mean (±SEM) number of lever presses in 30 min for treated animals. […] FIG. 1 illustrates a classic dose response curve wherein as the dose of drug (inventive compound 1-5) increases, lever pressing consistently decreases. Without wishing to be bound to any theory, applicants believe that inventive compound 1-5 antagonizes (blocks) the CB1 receptors, thereby suppressing appetite and leading to decreased lever pressing.

[1] = affinities Ki CB2, mouse spleen membranes
[2] = affinities Ki CB1, rat forebrain membranes
[3] = mouse spleen membranes, read-out: affinities Ki CB2
[4] = rat forebrain membranes, read-out: affinities Ki CB1

T2 sequence (P20272 whole entry): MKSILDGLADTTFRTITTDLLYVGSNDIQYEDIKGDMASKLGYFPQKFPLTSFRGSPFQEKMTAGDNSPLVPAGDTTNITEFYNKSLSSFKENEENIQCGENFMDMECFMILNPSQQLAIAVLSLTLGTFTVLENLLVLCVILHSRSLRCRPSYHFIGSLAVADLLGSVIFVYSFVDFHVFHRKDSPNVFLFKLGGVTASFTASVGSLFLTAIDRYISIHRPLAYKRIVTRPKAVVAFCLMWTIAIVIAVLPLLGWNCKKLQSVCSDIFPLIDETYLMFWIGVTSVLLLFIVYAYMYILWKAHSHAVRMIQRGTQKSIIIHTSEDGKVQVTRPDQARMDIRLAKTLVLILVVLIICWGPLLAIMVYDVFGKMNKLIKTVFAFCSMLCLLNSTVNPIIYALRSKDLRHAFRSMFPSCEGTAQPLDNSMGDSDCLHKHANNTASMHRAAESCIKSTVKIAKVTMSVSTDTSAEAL
T1 sequence (P47936 whole entry): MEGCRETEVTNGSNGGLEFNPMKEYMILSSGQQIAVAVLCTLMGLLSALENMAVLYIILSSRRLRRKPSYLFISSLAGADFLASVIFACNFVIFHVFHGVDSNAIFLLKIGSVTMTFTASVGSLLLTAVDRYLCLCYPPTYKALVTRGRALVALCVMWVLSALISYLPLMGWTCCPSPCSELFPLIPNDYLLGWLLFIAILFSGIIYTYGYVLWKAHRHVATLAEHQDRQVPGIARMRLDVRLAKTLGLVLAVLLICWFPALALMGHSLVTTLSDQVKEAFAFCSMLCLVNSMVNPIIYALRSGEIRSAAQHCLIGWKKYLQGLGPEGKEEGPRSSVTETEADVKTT

SMILES	Ki (CB2 receptor; [1])	Ki (CB1 cannabinoid receptor; [2])	Ki (CB2 receptor; [3])	Ki (CB1 cannabinoid receptor; [4])	selectivity CB1 (CB1 cannabinoid receptor; ratio of CB2 Ki to CB1 Ki)	selectivity CB2 (CB2 receptor)	selectivity CB1 (CB1 cannabinoid receptor)	suppression of food-reinforced lever pressing (number of lever presses in 30 min) (rats)
Cc1c(C(=O)NC2C3CC4CC(C3)CC2C4)nn(CCCCCCl)c1-c1ccccc1 (stereo not drawn) [Compound 4-4]	8.46 nM and 8.5 nM	7.64 nM and 7.6 nM						
CN(C(=O)c1nn(-c2ccc(Cl)cc2Cl)c(-c2ccc(-c3nnn[nH]3)cc2)c1CO)C1CCCCC1 [Compound 2-16]			1120 nM	293 nM	3.8			
Cc1c(C(=O)NN2CCCCC2)nn(-c2ccc(Cl)cc2Cl)c1-c1ccc(-c2cccc(Cl)c2)cc1 [Compound 1-1]			741 nM	1.5 nM	491			
Cn1nnc(-c2ccc(-c3c(CO)c(C(=O)NC4CCCCC4)nn3-c3ccc(Cl)cc3Cl)cc2)n1 [Compound 2-12]			36.5 nM	37 nM	1			
O=C(NC1CCCCC1)c1nn(-c2ccc(Cl)cc2Cl)c(-c2ccc(Br)cc2)c1CO [Compound 3-18]			2120 nM	6 nM	353.3			
Cc1c(CCC2CCCCC2)nn(-c2ccc(Cl)cc2Cl)c1-c1ccc(Br)cc1 [Compound 1-27]			26400 nM	1040 nM	25.3			
Cc1c(NC(=O)NC2CCCCC2)nn(-c2ccc(Cl)cc2Cl)c1-c1ccc(Br)cc1 [Compound 3-8]			4320 nM	6.8 nM	635.2			
O=C(NN1CCCCC1)c1nn(-c2ccc(-c3cccnc3)cc2Cl)c(-c2ccc(-c3cccnc3)cc2)c1CO [Compound 3-19]			1920 nM	146 nM	13.2			
CNCc1c(C(=O)NC2CCCCC2)nn(-c2ccc(Cl)cc2Cl)c1-c1ccc(Br)cc1 [Compound 1-15]			397 nM	172 nM	2.3			
COCc1c(C(=O)NC2CCCCC2)nn(-c2ccc(Cl)cc2Cl)c1-c1ccc(I)cc1 [Compound 1-22]			675 nM	15 nM	45			
Cc1c(C(=O)NN2CCCCC2)nn(-c2ccc(Cl)cc2Cl)c1-c1ccc(-c2nnn(C)n2)cc1 [Compound 2-3]			517 nM	6 nM	86.2			
Cc1c(C(=O)NC2CC3CCC2(C)C3(C)C)nn(CCCCCCl)c1-c1ccccc1 (stereo not drawn) [Compound 4-1]	2.51 nM and 2.5 nM	5.9 nM and 6 nM				2.4		
Cc1c(C(=O)NCC23CC4CC(CC(C4)C2)C3)nn(CCCCCCl)c1-c1ccccc1 [Compound 4-5]	6.65 nM and 6.6 nM	19.8 nM and 20 nM				3		
O=C(Nc1nn(-c2ccc(Cl)cc2Cl)c(-c2ccc(Br)cc2)c1CBr)NC1CCCCC1 [Compound 3-7]			136 nM	38 nM	3.6			
Cc1c(C(=O)NC2CCCCC2)nn(-c2ccc(Cl)cc2Cl)c1-c1ccc(-c2nnn(C)n2)cc1 [Compound 2-9]			381 nM	20 nM	19			
Cc1c(NC(=O)N(C)C2CCCCC2)nn(-c2ccc(Cl)cc2Cl)c1-c1ccc(Br)cc1 [Compound 3-11]			917 nM	29 nM	31.6			
COCc1c(C(=O)NC2CCCCC2)nn(-c2ccc(Cl)cc2Cl)c1-c1ccc(-c2ccncc2)cc1 [Compound 1-19]			2980 nM	160 nM	18.6			
COCc1c(C(=O)NC2CCCCC2)nn(-c2ccc(Cl)cc2Cl)c1-c1ccc(Br)cc1 [Compound 1-9]			495 nM	4 nM	124			

SMILES	Ki (CB2 receptor; [1])	Ki (CB1 cannabinoid receptor; [2])	Ki (CB2 receptor; [3])	Ki (CB1 cannabinoid receptor; [4])	selectivity CB1 (CB1 cannabinoid receptor; ratio of CB2 Ki to CB1 Ki)	selectivity CB2 (CB2 receptor)	selectivity CB1 (CB1 cannabinoid receptor)	suppression of food-reinforced lever pressing (number of lever presses in 30 min) (rats)
O=C(NC12CC3CC(CC(C3)C1)C2)c1cc(-c2ccccc2)n(CCCCCCl)n1 [Compound 4-6]	4.79 nM and 4.8 nM	12.2 nM and 12 nM				2.5		
Cc1c(C(=O)NN2CCCCC2)nn(-c2ccc(Cl)cc2Cl)c1-c1ccc(-c2nnnn2C)cc1 [Compound 2-2]			242 nM	90 nM	2.7			
Cc1c(NC(=O)NC2CCCCC2)nn(-c2ccc(Cl)cc2Cl)c1-c1ccc(-c2cccnc2)cc1 [Compound 2-22]			10900 nM	29 nM	374.6			
COCc1c(C(=O)NC23CC4CC(CC(C4)C2)C3)nn(-c2ccc(Cl)cc2Cl)c1-c1ccc(Br)cc1 [Compound 1-7]			1680 nM	53 nM			32	
O=C(NC1CCCCC1)c1nn(-c2ccc(Cl)cc2Cl)c(-c2ccc(Br)cc2)c1CBr [Compound 3-17]			3480 nM	46 nM	75.5			
COCc1c(C(=O)NC2CCCCC2)nn(-c2ccc(Cl)cc2Cl)c1-c1ccc(-c2ccsc2)cc1 [Compound 1-17]			968 nM	241 nM	4.0			
COCc1c(C(=O)NN2CCCCC2)nn(-c2ccc(Cl)cc2Cl)c1-c1ccc(Br)cc1 [Compound 1-8]	561 nM	19 nM			31			
O=C(NN1CCCCC1)c1nn(-c2ccc(Cl)cc2Cl)c(-c2ccc(-c3cccnc3)cc2)c1CO [Compound 1-5]			2310 nM	5.8 nM	398			suppression of food-reinforced lever pressing was statistically significant
O=C(NN1CCCCC1)c1nn(-c2ccc(-c3cccnc3)cc2Cl)c(-c2ccc(-c3cccnc3)cc2)c1CO [Compound 3-20]			1680 nM	154 nM	10.9			
CN(C(=O)c1nn(-c2ccc(Cl)cc2Cl)c(-c2ccc(-c3nnn(C)n3)cc2)c1CO)C1CCCCC1 [Compound 2-18]			641 nM	210 nM	3.0			
CCOCc1c(C(=O)NN2CCCCC2)nn(-c2ccc(Cl)cc2Cl)c1-c1ccc(Br)cc1 [Compound 1-12]			490 nM	46 nM	11			
Cc1c(C(=O)NCC2CCC3CC2C3(C)C)nn(CCCCCCl)c1-c1ccccc1 (stereo not drawn) [Compound 4-8]	0.615 nM and 0.6 nM	1.22 nM and 1.2 nM				2		
CN(C(=O)c1nn(-c2ccc(Cl)cc2Cl)c(-c2ccc(Br)cc2)c1CO)C1CCCCC1 [Compound 3-1]			1800 nM	29 nM	62.1			
Cc1c(C(=O)N(C)C2CCCCC2)nn(-c2ccc(Cl)cc2Cl)c1-c1ccc(-c2ccncc2)cc1 [Compound 3-6]			3290 nM	189 nM	17.4			
CN(C(=O)c1nn(-c2ccc(Cl)cc2Cl)c(-c2ccc(-c3ccncc3)cc2)c1CO)C1CCCCC1 [Compound 3-5]			294 nM	90 nM	3.3			
CCOCc1c(C(=O)NC2CCCCC2)nn(-c2ccc(Cl)cc2Cl)c1-c1ccc(Br)cc1 [Compound 1-10]			842 nM	54 nM	16			
Cc1c(C(O)C(O)c2ccccc2)nn(-c2ccc(Cl)cc2Cl)c1-c1ccc(Br)cc1 (stereo not drawn) [Compound 1-28]	3930 nM			1070 nM	3.7			
Cn1nnc(-c2ccc(-c3c(CO)c(C(=O)NN4CCCCC4)nn3-c3ccc(Cl)cc3Cl)cc2)n1 [Compound 2-6]			2170 nM	18 nM	120.5			

— patent US8084467B2, “Pyrazole derivatives as cannabinoid receptor antagonists” (University of Connecticut, priority 2004, dated 2011)
